The structures appear in SMILES notation. Read-outs that look alike come from different tables or passages of the source. Bounds are passed on as bounds.

Usually MIC stands for the lowest concentration found to suppress growth.

Experiment [1] has as its system MRSA. As to the kind of experiment: Adjuvant broth microdilution (antibiotic MIC with SP-BIM at 50 μg/mL). Conditions: Staphylococcus aureus, antibiotic alone, Table 4, read-out: MIC of antibiotic, No compound. In kind it is cell-based, Staphylococcus aureus. (In general: In broth dilution the organism is exposed to a series of concentrations in liquid medium.)
The test system of experiment [2] is Klebsiella pneumoniae. The description is as above. In kind it is cell-based. Conditions: Klebsiella pneumoniae; antibiotic alone; Table 7; read-out: MIC of antibiotic, No compound.
For experiment [3], the system named is Bacillus cereus ATCC 14579. As to the kind of experiment: Broth microdilution MIC of SP-BIMs. It counts as cell-based.
The test system of experiment [4] is Candida albicans ATCC 22972. The experiment is described as follows: Broth microdilution MIC of SP-BIMs. It counts as cell-based.
The subject of experiment [5] is Klebsiella pneumoniae ATCC 49472. As to the kind of experiment: Broth microdilution MIC of SP-BIMs. In kind it is cell-based.
Experiment [6] deals with Pseudomonas aeruginosa ATCC 27853. The experiment is described as follows: Broth microdilution MIC of SP-BIMs. In kind it is cell-based.
The subject of experiment [7] is Staphylococcus aureus ATCC 12600. The experiment is described as follows: Broth microdilution MIC of SP-BIMs. In kind it is cell-based.
The subject of experiment [8] is Enterococcus faecium ATCC 19434. As to the kind of experiment: Broth microdilution MIC of SP-BIMs. It counts as cell-based.
Experiment [9] has as its system Escherichia coli ATCC 35218. As to the kind of experiment: Broth microdilution MIC of SP-BIMs. It counts as cell-based.
For experiment [10], the system named is Salmonella typhimurium ATCC 14028. The experiment is described as follows: Broth microdilution MIC of SP-BIMs. It counts as cell-based. The note with it: Salmonella enterica, read-out: MIC Salmonella tvpkimurium ATCC 14028. From the text: Reference microorganisms used in this study included: Bacillus cereus (American Type Culture Collection (ATCC) No. 14579), Streptococcus pyogenes (ATCC No. 19615), Staphylococcus aureus (ATCC No. 12600), Enterococcus faecium (ATCC No. 19434), Corynebacterium diphtheriae (ATCC No. 27010), Escherichia coli (ATCC No. 35218), Salmonella typhimurium (ATCC No. 14028), Pseudomonas aeruginosa (ATCC No. 27853), Klebsiella pneumoniae (ATCC No. 49472), and Candida albicans (ATCC No. 22972).
Prior to each experiment, cultures were streaked onto clean BHI agar plates and incubated at 35° C. for 24 hours. Colonies of the respective cultures were selected and inoculated in phosphate buffer saline (pH 7.5) to a 0.5 McFarland turbidity standard (equivalent to 10^8 CFU mL^−1). The bacterial suspension was then diluted 1:100 in cation adjusted Mueller Hinton Broth (ca-MHB) (Oxoid Ltd, Basingstoke, Hampshire, England).
Stock solutions (50 mg mL^−1) of the SP-BIM test compounds were prepared in DMSO and stored at 4° C. Working preparations of each compound was made up to 1 mg/mL in sterile deionized water with a final DMSO concentration of 10%.
To assess the antibiotic properties of the library of SP-BIMs, the broth microdilution assay was performed in 96-well microplates according to the Clinical and Laboratory Standards Institute 2014 Guidelines (CLSI 2014). The broth microdilution assay was used to determine the minimum inhibitory concentration (MIC). […] Bacterial cells (˜10^6 CFU mL^−1) were inoculated into cation adjusted-Mueller Hinton broth containing the test compound in a twofold serial dilution ranging between 250 μg mL^−1 and 0.02 μg mL^−1. Plates were incubated at 35° C. for 18 hours after which 50 μL of 5% resazurin solution was added to each well. Resazurin is a blue dye which, upon reduction by living cells, turns to a pink resorufin product. Plates were shaken for 1 hour after the addition of the dye. The MIC was recorded as the well with the lowest concentration of test compound where no color change was observed.

The subject of experiment [11] is Streptococcus pneumoniae. As to the kind of experiment: Adjuvant broth microdilution (antibiotic MIC with SP-BIM at 50 μg/mL). Conditions: Streptococcus pneumoniae, Streptococcus pneumonia, SP-BIM at 50 μg mL^−1. It counts as cell-based.
Experiment [12] relates to Streptococcus pyogenes ATCC 19615. As to the kind of experiment: Broth microdilution MIC of SP-BIMs. It counts as cell-based.
Experiment [13] deals with Corynebacterium diphtheriae ATCC 27010. The experiment is described as follows: Broth microdilution MIC of SP-BIMs. In kind it is cell-based.
The mark [14] stands for this setting: ATCC14579, SP-BIM alone, read-out: MIC Bacillus cereus ATCC 14579.
The mark [15] stands for this setting: ATCC22972, SP-BIM alone, read-out: MIC Candida albicans ATCC 22972.
[16] abbreviates: ATCC49472, SP-BIM alone, read-out: MIC Klebisella pneumoniae ATCC 49472.
Setting [17] is: ATCC27853, SP-BIM alone, read-out: MIC Pseudomonas aeruginosa ATCC 27853.
Where [18] appears, read: ATCC12600, SP-BIM alone, read-out: MIC Staphylococcus aureus ATCC 12600.
[19] abbreviates: ATCC19434, SP-BIM alone, read-out: MIC Enterococcus faecium ATCC 19434.
The mark [20] stands for this setting: ATCC35218, SP-BIM alone, read-out: MIC Escherichia coli ATCC 35218.
[21] abbreviates: read-out: MIC of Kanamvcin with SP-BIM.
Setting [22] is: read-out: MIC of Vancomvcin with SP-BIM.
The mark [23] stands for this setting: ATCC19615, SP-BIM alone, read-out: MIC Streptococcus pyogenes ATCC 19615.
Setting [24] is: ATCC27010, SP-BIM alone, read-out: MIC Corynebacterium diphtheriae ATCC 27010.

`C[C@@H](O)[C@H]1C(=O)N2C(C(=O)O)=C(SCCN=CN)C[C@H]12` [Imipenem, imipenem]: the MIC in experiment [1] stood at 4 µg/mL; in experiment [2], 2 µg/mL.

In the case of `O=[N+]([O-])c1cccc(C(c2c[nH]c3ccccc23)c2c[nH]c3ccccc23)c1` [SP-BIM 5, [bis(indol-3-yl)-3-nitrophenyl]methane], the minimum inhibitory concentration (MIC) in experiment [3] (setting [14]) was more than 250 µg/mL; in experiment [4] (setting [15]) it was 250 µg/mL; in experiment [5] (setting [16]) it was more than 250 µg/mL; in [6] (setting [17]), 250 µg/mL; in [7] (setting [18]), more than 250 µg/mL; in experiment [8] (setting [19]), more than 250 µg/mL. The MIC was more than 250 µg/mL in experiment [9] (setting [20]); 250 µg/mL in experiment [10]; 125 µg/mL in experiment [11] (setting [21]); 1 µg/mL in experiment [11] (setting [22]); more than 250 µg/mL in [12] (setting [23]); more than 250 µg/mL in experiment [13] (setting [24]).

With `c1cc(C(c2c[nH]c3ccccc23)c2c[nH]c3ccccc23)cc(C(c2c[nH]c3ccccc23)c2c[nH]c3ccccc23)c1` [SP-BIM 7, 1,3-bis[bis(indoly-3-yl)methyl]benzene], the MIC in [3] (setting [14]) is more than 250 µg/mL; in experiment [4] (setting [15]), 250 µg/mL; in [5] (setting [16]), more than 250 µg/mL; in experiment [6] (setting [17]) it was 250 µg/mL; in [7] (setting [18]), more than 250 µg/mL; in experiment [8] (setting [19]) it was more than 250 µg/mL. Besides, the MIC in experiment [9] (setting [20]) is more than 250 µg/mL; in [10], 250 µg/mL; in experiment [11] (setting [21]), 125 µg/mL; in [11] (setting [22]), 1 µg/mL; in experiment [12] (setting [23]) it was more than 250 µg/mL; in [13] (setting [24]), more than 250 µg/mL.

`O=[N+]([O-])c1ccc(C(c2c[nH]c3ccccc23)c2c[nH]c3ccccc23)cc1` [SP-BIM 8]: the MIC in [3] (setting [14]) is more than 250 µg/mL; in experiment [4] (setting [15]), 250 µg/mL; in [5] (setting [16]), more than 250 µg/mL; in [6] (setting [17]), 250 µg/mL; in [7] (setting [18]), more than 250 µg/mL; in [8] (setting [19]) it was more than 250 µg/mL. Besides, the MIC is more than 250 µg/mL in [9] (setting [20]); 250 µg/mL in [10]; 125 µg/mL in experiment [11] (setting [21]); 1 µg/mL in experiment [11] (setting [22]); more than 250 µg/mL in experiment [12] (setting [23]); more than 250 µg/mL in experiment [13] (setting [24]).

For `COc1ccccc1C(c1c[nH]c2ccccc12)c1c[nH]c2ccccc12` [SP-BIM 12, bis(indol-3-yl)-2-methoxyphenylmethane], the MIC in experiment [3] (setting [14]) was more than 250 µg/mL; in [4] (setting [15]), 250 µg/mL; in experiment [5] (setting [16]) it was more than 250 µg/mL; in experiment [6] (setting [17]), 250 µg/mL; in [7] (setting [18]) it was more than 250 µg/mL; in [8] (setting [19]) it was more than 250 µg/mL. Further, the MIC in experiment [9] (setting [20]) is more than 250 µg/mL; in [10], 250 µg/mL; in experiment [11] (setting [21]) it was 125 µg/mL; in [11] (setting [22]) it was 1 µg/mL; in experiment [12] (setting [23]), more than 250 µg/mL; in [13] (setting [24]), more than 250 µg/mL.

For `c1ccc2c(c1)cc(C(c1c[nH]c3ccccc13)c1c[nH]c3ccccc13)c1ccccc12` [SP-BIM 14, bis[indol-3-yl)-phenanthren-9-ylmethane], the MIC is 125 µg/mL in experiment [3] (ATCC14579, read-out: MIC Bacillus cereus ATCC 14579); 250 µg/mL in experiment [4] (ATCC22972, read-out: MIC Candida albicans ATCC 22972); more than 250 µg/mL in [5] (ATCC49472, read-out: MIC Klebisella pneumoniae ATCC 49472); 250 µg/mL in [6] (ATCC27853, read-out: MIC Pseudomonas aeruginosa ATCC 27853); more than 250 µg/mL in [7] (ATCC12600, read-out: MIC Staphylococcus aureus ATCC 12600); 125 µg/mL in experiment [8] (ATCC19434, read-out: MIC Enterococcus faecium ATCC 19434). In addition, the MIC is more than 250 µg/mL in [9] (ATCC35218, read-out: MIC Escherichia coli ATCC 35218); 250 µg/mL in [10]; 125 µg/mL in experiment [11] (setting [21]); 1 µg/mL in experiment [11] (setting [22]); 125 µg/mL in experiment [12] (ATCC19615, read-out: MIC Streptococcus pyogenes ATCC 19615); more than 250 µg/mL in experiment [13] (ATCC27010, read-out: MIC Corynebacterium diphtheriae ATCC 27010).

On to `Oc1cc(Br)ccc1[C+](c1c[nH]c2ccccc12)c1c[nH]c2ccccc12` [SP-BIM 17, 4-bromo-2-hydroxyphenylbis(indol-3-yl)methylium], for which the MIC is more than 250 µg/mL in [3] (setting [14]); 250 µg/mL in experiment [4] (setting [15]); more than 250 µg/mL in experiment [5] (setting [16]); 250 µg/mL in [6] (setting [17]); more than 250 µg/mL in [7] (setting [18]); more than 250 µg/mL in experiment [8] (setting [19]). Besides, the MIC was more than 250 µg/mL in experiment [9] (setting [20]); 250 µg/mL in [10]; 125 µg/mL in [11] (setting [21]); 1 µg/mL in experiment [11] (setting [22]); more than 250 µg/mL in experiment [12] (setting [23]); more than 250 µg/mL in experiment [13] (setting [24]).

`COc1ccc2c(C(c3cccc(O)c3)c3c[nH]c4cc(OC)ccc34)c[nH]c2c1` [SP-BIM 19, bis(6-methoxyindoly-3-yl)-3-hydroxyphenylmethane]: the MIC in experiment [3] (setting [14]) was more than 250 µg/mL; in experiment [4] (setting [15]), 250 µg/mL; in [5] (setting [16]), more than 250 µg/mL; in [6] (setting [17]), 250 µg/mL; in experiment [7] (setting [18]), more than 250 µg/mL; in experiment [8] (setting [19]) it was more than 250 µg/mL. Further, the MIC was more than 250 µg/mL in [9] (setting [20]); 250 µg/mL in experiment [10]; 125 µg/mL in [11] (setting [21]); 1 µg/mL in experiment [11] (setting [22]); more than 250 µg/mL in experiment [12] (setting [23]); more than 250 µg/mL in experiment [13] (setting [24]).

`COc1ccc2c(C(c3ccc([N+](=O)[O-])cc3)c3c[nH]c4cc(OC)ccc34)c[nH]c2c1` [SP-BIM 20, bis(6-methoxyindol-3-yl)-4-nitrophenylmethane]: the MIC was more than 25 µg/mL in experiment [3] (setting [14]); 250 µg/mL in [4] (setting [15]); more than 250 µg/mL in experiment [5] (setting [16]); 250 µg/mL in experiment [6] (setting [17]); more than 250 µg/mL in experiment [7] (setting [18]); more than 250 µg/mL in [8] (setting [19]). The MIC in experiment [9] (setting [20]) is more than 250 µg/mL; in [10], 250 µg/mL; in experiment [11] (setting [21]), 125 µg/mL; in [11] (setting [22]), 1 µg/mL; in [12] (setting [23]), more than 250 µg/mL; in experiment [13] (setting [24]) it was more than 250 µg/mL.

For the origin of these results see patent publication US12285407B2, “Bis-indolylmethane derivatives and uses thereof” (The University of The West Indies, priority 2018, dated 2025).
